Measurements from patent publication US20250333406A1, “SULFONYL CYCLIC DERIVATIVES, AND COMPOSITIONS AND METHODS THEREOF” (Lysoway Therapeutics, Inc., priority 2023, published 2025).

System: TFEB
Test: TFEB Nuclear Translocation Assay
Format: cell-based
Conditions: read-out: EC50 of TFEB activation

| EC50 [nM] | Compound |
| --- | --- |
| ≤ 1000 | CC(F)(F)c1ccc(S(=O)(=O)n2nc(N3CCN(C(C)(C)CF)CC34CC4)c3c(Cl)cccc32)cc1 [Compound 128, 4-chloro-1-((4-(1,1-difluoroethyl)phenyl)sulfonyl)-3-(7-(1-fluoro-2-methylpropan-2-yl)-4,7-diazaspiro [2.5]octan-4-yl)-1H-indazole] |
| ≤ 1000 | CC(F)(F)c1ccc(S(=O)(=O)n2nc(N3CCN(C(C)(CF)CF)CC34CC4)c3c(Cl)cccc32)cc1 [Compound 130, 4-chloro-1-[4-(1,1-difluoroethyl)phenyl]sulfonyl-3-[7-[2-fluoro-1-(fluoromethyl)-1-methyl-ethyl]-4,7-diazaspiro [2.5]octan-4-yl]indazole] |
| ≤ 1000 | CC(F)(F)c1ccc(S(=O)(=O)n2nc(N3CCN(c4ncc(F)cn4)CC34CC4)c3c(F)cccc32)cc1 [Compound 133, 1-[4-(1,1-difluoroethyl)phenyl]sulfonyl-4-fluoro-3-[7-(5-fluoropyrimidin-2-yl)-4,7-diazaspiro [2.5]octan-4-yl]indazole] |
| ≥ 10000 | CC(F)(F)c1ccc(S(=O)(=O)n2nc(N3CCN(c4ncc(F)cn4)CC34CC4)c3c(O)cccc32)cc1 [Compound 134, 1-[4-(1,1-difluoroethyl)phenyl]sulfonyl-3-[7-(5-fluoropyrimidin-2-yl)-4,7-diazaspiro [2.5]octan-4-yl]indazol-4-ol] |
| ≤ 1000 | CC(F)(F)c1ccc(S(=O)(=O)n2nc(N3CCN(c4ncc(F)cn4)CC34CC4)c3c(Cl)cccc32)cn1 [Compound 135, 4-chloro-1-[[6-(1,1-difluoroethyl)-3-pyridyl]sulfonyl]-3-[7-(5-fluoropyrimidin-2-yl)-4,7-diazaspiro [2.5]octan-4-yl]indazole] |
| ≥ 10000 | CC(F)(F)c1cnc(-n2nc(N3CCN(c4ncc(F)cn4)CC34CC4)c3c(Cl)cccc32)nc1 [Compound 136, 4-chloro-1-[5-(1,1-difluoroethyl)pyrimidin-2-yl]-3-[7-(5-fluoropyrimidin-2-yl)-4,7-diazaspiro [2.5]octan-4-yl]indazole] |
| ≤ 1000 | CC(F)(F)c1ncc(S(=O)(=O)n2nc(N3CCN(c4ncc(F)cn4)CC34CC4)c3c(Cl)cccc32)cn1 [Compound 137, 4-chloro-1-[2-(1,1-difluoroethyl)pyrimidin-5-yl]sulfonyl-3-[7-(5-fluoropyrimidin-2-yl)-4,7-diazaspiro [2.5]octan-4-yl]indazole] |
| ≤ 1000 | CC1COCC(C)N1c1nn(S(=O)(=O)c2ccn(S(=O)(=O)C(C)C)c2)c2cccc(Cl)c12 (stereo not drawn) [Compound 138, 4-[4-chloro-1-(1-isopropylsulfonylpyrrol-3-yl)sulfonyl-indazol-3-yl]-3,5-dimethyl-morpholine] |

| Compound | EC50 [nM] |
| --- | --- |
| CC(F)(F)c1ccc(S(=O)(=O)n2nc(N3CCN(C(=O)F)CC34CC4)c3c(Cl)cccc32)cc1 [Compound 127, 4-(4-chloro-1-((4-(1,1-difluoroethyl)phenyl)sulfonyl)-1H-indazol-3-yl)-4,7-diazaspiro [2.5]octane-7-carbonyl fluoride] | ≤ 1000 |
| CC(F)(F)C12CC(S(=O)(=O)n3nc(N4CCN(c5ncc(F)cn5)CC45CC5)c4c(Cl)cccc43)(C1)C2 [Compound 129, 4-chloro-1-((3-(1,1-difluoroethyl)bicycle [1.1.1]pentan-1-yl)sulfonyl)-3-(7-(5-fluoropyrimidin-2-yl)-4,7-diazaspiro [2.5]octan-4-yl)-1H-indazole] | ≤ 1000 |
| O=S(=O)(n1nc(N2CCN(c3ncc(F)cn3)CC23CC3)c2c(Cl)cccc21)C12CC(C(F)(F)F)(C1)C2 [Compound 131, 4-chloro-3-[7-(5-fluoropyrimidin-2-yl)-4,7-diazaspiro [2.5]octan-4-yl]-1-[[3-(trifluoromethyl)-1-bicyclo [1.1.1]pentanyl]sulfonyl]indazole] | ≥ 10000 |
| O=S(=O)(n1nc(N2CCN(c3ncc(F)cn3)CC23CC3)c2c(Cl)cccc21)C12CC(F)(C1)C2 [Compound 132, 4-chloro-1-[(3-fluoro-1-bicyclo [1.1.1]pentanyl)sulfonyl]-3-[7-(5-fluoropyrimidin-2-yl)-4,7-diazaspiro [2.5]octan-4-yl]indazole] | ≥ 10000 |
